Measurements as given in PMC9781104 (Pharmaceutics, 2022).
Like-named read-outs stand apart in the source and are kept apart here.

Columns and labels:
[1] = test system: CYP3A4; design: method as in ref [17, 18] of supplement; conditions: ref [17, 18] of supplement, cited from earlier work; for Km: literature value adapted with fu,inc
[2] = design: method as in PMID 22108178; conditions: healthy female volunteers; cited from earlier work
[3] = test system: CYP2D6; conditions: cited from earlier work; for Km: literature value adapted with fu,inc
[4] = target: estrogen receptor; conditions: read-out: half-maximal inhibitory concentration towards the estrogen receptor; cited from earlier work
[5] = Pharmacokinetic panel study in CYP2D6-genotyped healthy female volunteers (observed plasma AUClast/Cmax, DGI and DD(G)I with clarithromycin or paroxetine); assay type: in vivo, human; conditions: for order of AUClast across CYP2D6 phenotypes: DGI setting
Procedure: Clinical data from a recently performed pharmacokinetic panel study (EudraCT-Nr.: 2009-014531-20, ClinicalTrails.gov: NCT01289756) were used for PBPK model development. The study protocol, patient information sheet and consent form were approved by the Ethics Committee of the University of Tübingen and the German Federal Institute for Drugs and Medical Devices (BfArM). All study participants had signed an informed consent form.
The study was conducted in 20 healthy, Caucasian, premenopausal female volunteers that were genotyped for CYP2D6 polymorphisms and subsequently assigned to predicted phenotypes according to the respective CYP2D6 activity score (AS) as depicted in Table 1 [17, 18]. […] After a wash-out phase of at least three weeks, clomiphene was administered concomitantly with the strong CYP3A4 inhibitor clarithromycin [19]. Here, the participants received 500 mg clarithromycin twice daily for four days. On day 5, a single dose of clomiphene citrate was administered together with 500 mg clarithromycin. Finally, in the third period, all subjects received clomiphene citrate together with the strong CYP2D6 inhibitor paroxetine. Here, 40 mg paroxetine was administered once daily for two days. On day 3, participants received a single dose of clomiphene citrate concomitantly with 40 mg paroxetine (Figure 1).
For the evaluation of DGI and DD(G)I effects, the predicted AUClast and Cmax effect ratios were calculated according to Equations (4) and (5) and compared with the corresponding observed values. Here, model performance was assessed using the prediction acceptance limits proposed by Guest et al. with 1.25-fold variability. (4) AUClast, AS=i ratio=AUClast, effect, AS=i/AUClast, control (5) Cmax, AS=i ratio=Cmax, effect, AS=i/Cmax, control
For the calculation of DGI ratios, AUClast, effect, AS=i and Cmax, effect, AS=i represent the AUClast and Cmax for CYP2D6 AS = i, while AUClast, control and Cmax, control are the AUClast and Cmax values for the NM (AS = 2) population. For the calculation of DD(G)I ratios, AUClast, effect, AS=i and Cmax, effect, AS=i represent the AUClast and Cmax for the CYP2D6 AS = i in the DD(G)I scenario with clarithromycin or paroxetine, while AUClast, control and Cmax, control are the AUClast and Cmax values for the CYP2D6 AS = i without the concomitant use of perpetrator drugs.

[6] = design: method as in ref [35] of supplement; conditions: ref [35] of supplement; cited from earlier work
[7] = cited from earlier work; for Solubility (pH 6.5): ref [30]; for Solubility (pH 6.5) / pKa (base), literature: [34]; for Solubility (pH 6.5) / pKa (base), literature / pKa (acid): [38] of supplement (ChemAxon Chemicalize); for pKa (base), literature: ref [23], [30]; for pKa (acid): ref [34]
[8] = test system: CYP2D6; assay: In vitro scaling factors from CYP2D6 activity score-specific in vitro metabolite formation rates; assay type: in vitro ADME, human
Source text: Here, kcat, AS=i represents the catalytic rate constant for CYP2D6 AS = i, kcat, AS=2 is the catalytic rate constant for the NM population and IVSFi is the corresponding in vitro scaling factor (IVSF).
S2. Drug-Gene-Interaction (DGI) Modeling
S2.1. CYP2D6 in vitro Scaling Factors
The estimated CYP2D6 kcat values for the NM population were extrapolated to the intermediate metabolizers (IM) (AS=0.5, AS=0.75 and AS=1) and ultrarapid metabolizers (UM) populations according to Equation 1 in the main manuscript, using in vitro scaling factors (IVSFs). Determination of IVSFs were based on AS-specific in vitro metabolite formation rates relative to the corresponding formation rate in NM as a reference. The respective IVSFs for each CYP2D6-dependent pathway are depicted in Table S8. Measured in vitro data for (E)-4-OH-Clom and (E)-4-OH-DE-Clom AS-specific formation rates were available, while mean values were assumed for the remaining CYP2D6-dependent metabolic pathways.
Table S8. Employed in vitro scaling factors (IVSFs) for individual CYP2D6 activity scores. […]

[9] = test system: CYP2D6; assay: PBPK model: CYP2D6-mediated metabolism (Km, kcat, contribution); design: species or system human; conditions: Assumed equal to Km of CYP2D6-mediated hydroxylation of (E)-4-OH-Clom, adapted with fu,inc=0.243; read-out: CYP2D6 Km → undef., assumed
Source text: An additional biotransformation process via CYP2B6 to (E)-4-OH-Clom was implemented to cover the fraction of CYP2D6-independent metabolism observed in the PM population and in CYP2D6 DD(G)I scenarios.
(E)-4-OH-Clom is metabolized via CYP2D6 to (Z)-3,4-dihydroxyclomiphene (implemented as an undefined metabolite), via an unspecific hepatic clearance mechanism and via CYP3A4 to the second active metabolite (E)-4-OH-DE-Clom. (E)-4-OH-DE-Clom is also formed via CYP2D6 metabolism of (E)-DE-Clom, which in turn, represents the main route of elimination of (E)-DE-Clom. Furthermore, (E)-DE-Clom is metabolized to minor extents through CYP2D6 and CYP3A4 to (E)-N,N-didesethylclomiphene (implemented as an undefined metabolite). The metabolism of (E)-4-OH-DE-Clom has not been extensively investigated, yet. According to work by Kröner, (E)-4-OH-DE-Clom is presumably metabolized through a CYP-mediated pathway to (Z)-3,4-dihydroxydesethyl-clomiphene. […]
This was integrated by accounting for the 80:20 metabolic ratio of CYP3A4 to CYP2D6 reported by Mazzarino and coworkers. […] As previously described, the ratio of the corresponding measured in vitro metabolic enzyme activities was used dur-ing the parameter estimation step for optimization of kcat values (kcat, CYP3A4 = 0.13 * kcat, CYP2D6)

[10] = cited from earlier work
[11] = ref [19] ((E)-Clom, (E)-4-OH-Clom), [17, 18] ((E)-DE-Clom) of supplement, read-out: CYP2D6 Km → undef.

| Structure (SMILES) | maximum plasma concentration (Cmax) in CYP2D6 PM compared with NM [2] | Km [3, 11] | IC50 [4] | order of AUClast across CYP2D6 phenotypes [5] | observed AUClast effect ratio in clarithromycin DDGI scenario vs control ([5]; PM) | Solubility (pH 6.5) [7] | pKa (base), literature [7] | pKa (acid) [7] | IVSF, CYP2D6-mediated pathway → undef. ([8]; AS=0, mean value assumed) | IVSF, CYP2D6-mediated pathway → undef. ([8]; AS=0.5, mean value assumed) | IVSF, CYP2D6-mediated pathway → undef. ([8]; AS=0.75, mean value assumed) | IVSF, CYP2D6-mediated pathway → undef. ([8]; AS=1, mean value assumed) | IVSF, CYP2D6-mediated pathway → undef. ([8]; AS=2 (NM, reference)) | IVSF, CYP2D6-mediated pathway → undef. ([8]; AS=3, mean value assumed) | other results |
| --- | --- | --- | --- | --- | --- | --- | --- | --- | --- | --- | --- | --- | --- | --- | --- |
| CCN(CC)CCOc1ccc(/C(=C(/Cl)c2ccccc2)c2ccc(O)cc2)cc1 [(E)-4-OH-Clom, (E)-4-hydroxyclomiphene] | approximately ten-fold lower | 3600 nM | 2.2 nM | AUCIM (AS = 0.5) > AUCNM > AUCUM > AUCPM | ~ 1.3 fold | 0.06 mg/ml | 9.41 | 8.64 | 0 | 0.17 | 0.23 | 0.51 | 1 | 1.41 | Km ([1]; read-out: CYP3A4 Km → (E)-4-OH-DE-Clom): 3400 nM; Cmax change due to inhibition of CYP2D6 by paroxetine ([5]; all phenotypes except for PM): decreased; AUClast change during CYP3A4 inhibition ([5]; clarithromycin, all phenotypes): slight increase; fu (fraction unbound), literature [6]: 0.6% |
| CCNCCOc1ccc(/C(=C(/Cl)c2ccccc2)c2ccc(O)cc2)cc1 [(E)-4-OH-DE-Clom, (E)-4-hydroxy-N-desethylclomiphene] | approximately ten-fold lower | – | 0.9 nM | AUCIM (AS = 0.5) > AUCNM > AUCUM > AUCPM | ~ 0.6 fold | 0.17 mg/ml | 9.65 | 8.69 | 0 | 0.17 | 0.23 | 0.51 | 1 | 1.41 | Km [9]: 8.86 µM; observed DGI AUClast effect ratio ([5]; IM (AS = 1) vs NM): ~ 0.8; logP (lipophilicity), literature ([7]; ref [23, 25-27], [30, 31], [25, 34], [38] of supplement): 4.47 |
| CCNCCOc1ccc(/C(=C(/Cl)c2ccccc2)c2ccccc2)cc1 [(E)-DE-Clom, (E)-N-desethylclomiphene] | – | 970 nM | – | – | – | 0.46 mg/ml | 9.59 | – | 0 | 0.17 | 0.23 | 0.51 | 1 | 1.41 | ratio kcat,CYP3A4 / kcat,CYP2D6 for metabolism to (E)-N,N-didesethylclomiphene ([1]; from measured in vitro metabolic enzyme activities): 0.13; Km ([1]; read-out: CYP3A4 Km → undef.): 970 nM; CYP2D6 contribution to the formation of the desethyl metabolite ([3]; as incorporated in the model): ~ 20%; Km ([3]; ref [17, 18] of supplement, read-out: CYP2D6 Km → (E)-4-OH-DE-Clom): 490 nM; AUClast reduction during concomitant clarithromycin ([5]; PM): ~ 34%; IVSF, CYP2D6-mediated pathway → (E)-4-OH-DE-Clom ([8]; AS=0, relative to NM, from in vitro formation rates, supplement ref [17]): 0; IVSF, CYP2D6-mediated pathway → (E)-4-OH-DE-Clom ([8]; AS=0.5, relative to NM, from in vitro formation rates, supplement ref [17]): 0.16; IVSF, CYP2D6-mediated pathway → (E)-4-OH-DE-Clom ([8]; AS=0.75, relative to NM, from in vitro formation rates, supplement ref [17]): 0.19; IVSF, CYP2D6-mediated pathway → (E)-4-OH-DE-Clom ([8]; AS=1, relative to NM, from in vitro formation rates, supplement ref [17]): 0.44; IVSF, CYP2D6-mediated pathway → (E)-4-OH-DE-Clom ([8]; AS=2 (NM, reference)): 1; IVSF, CYP2D6-mediated pathway → (E)-4-OH-DE-Clom ([8]; AS=3, relative to NM, from in vitro formation rates, supplement ref [17]): 1.30 |
| CCN(CC)CCOc1ccc(C(=C(Cl)c2ccccc2)c2ccccc2)cc1 [clomiphene, Clomiphene] | – | – | – | – | – | – | – | – | – | – | – | – | – | – | response to clomiphene therapy ([10]; CYP2D6 IM): all CYP2D6 intermediate metabolizers (IM) responded; non-responders to clomiphene therapy ([10]; CYP2D6 NM): 30%; women who do not respond during clomiphene therapy [10]: 8–54% |
